In ChEMBL document CHEMBL1138676, “Liver-selective glucocorticoid antagonists: a novel treatment for type 2 diabetes” (J Med Chem, 2004):

Tests used:
Glucocorticoid receptor [1] = target: T1, Glucocorticoid receptor (Homo sapiens, UniProt P04150); assay: Inhibition of glucocorticoid receptor dependent alkaline phosphatase activity; format: functional
T1 sequence (P04150 whole entry): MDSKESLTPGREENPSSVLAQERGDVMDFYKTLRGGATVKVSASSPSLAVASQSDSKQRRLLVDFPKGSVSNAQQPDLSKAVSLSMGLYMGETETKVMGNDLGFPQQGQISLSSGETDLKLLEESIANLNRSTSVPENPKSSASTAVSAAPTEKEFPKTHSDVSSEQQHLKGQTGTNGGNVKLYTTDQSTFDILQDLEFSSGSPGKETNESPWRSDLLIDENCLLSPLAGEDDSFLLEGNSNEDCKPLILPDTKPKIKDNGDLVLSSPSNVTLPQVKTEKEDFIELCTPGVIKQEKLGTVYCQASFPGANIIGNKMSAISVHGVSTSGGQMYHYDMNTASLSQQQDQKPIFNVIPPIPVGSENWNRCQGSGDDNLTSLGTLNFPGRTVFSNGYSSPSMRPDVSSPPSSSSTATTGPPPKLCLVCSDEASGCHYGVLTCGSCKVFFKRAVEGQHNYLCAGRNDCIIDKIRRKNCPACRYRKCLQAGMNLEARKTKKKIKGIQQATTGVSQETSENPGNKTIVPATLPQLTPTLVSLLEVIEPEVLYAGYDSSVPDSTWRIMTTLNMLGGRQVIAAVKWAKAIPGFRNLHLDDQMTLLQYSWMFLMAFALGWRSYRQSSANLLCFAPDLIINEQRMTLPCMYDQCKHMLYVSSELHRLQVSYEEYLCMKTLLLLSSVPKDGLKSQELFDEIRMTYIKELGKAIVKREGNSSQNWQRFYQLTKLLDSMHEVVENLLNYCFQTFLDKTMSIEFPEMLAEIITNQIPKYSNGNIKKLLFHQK

[2] = target: Glucocorticoid receptor (Rattus norvegicus) (UniProt P06536); assay: Inhibition of glucocorticoid receptor mediated tyrosine aminotransferase activity; parameters: concentration or dose not given beside the values; conditions: concentration not given here
Sequence of Glucocorticoid receptor (Rattus norvegicus) (P06536 whole entry, looked up): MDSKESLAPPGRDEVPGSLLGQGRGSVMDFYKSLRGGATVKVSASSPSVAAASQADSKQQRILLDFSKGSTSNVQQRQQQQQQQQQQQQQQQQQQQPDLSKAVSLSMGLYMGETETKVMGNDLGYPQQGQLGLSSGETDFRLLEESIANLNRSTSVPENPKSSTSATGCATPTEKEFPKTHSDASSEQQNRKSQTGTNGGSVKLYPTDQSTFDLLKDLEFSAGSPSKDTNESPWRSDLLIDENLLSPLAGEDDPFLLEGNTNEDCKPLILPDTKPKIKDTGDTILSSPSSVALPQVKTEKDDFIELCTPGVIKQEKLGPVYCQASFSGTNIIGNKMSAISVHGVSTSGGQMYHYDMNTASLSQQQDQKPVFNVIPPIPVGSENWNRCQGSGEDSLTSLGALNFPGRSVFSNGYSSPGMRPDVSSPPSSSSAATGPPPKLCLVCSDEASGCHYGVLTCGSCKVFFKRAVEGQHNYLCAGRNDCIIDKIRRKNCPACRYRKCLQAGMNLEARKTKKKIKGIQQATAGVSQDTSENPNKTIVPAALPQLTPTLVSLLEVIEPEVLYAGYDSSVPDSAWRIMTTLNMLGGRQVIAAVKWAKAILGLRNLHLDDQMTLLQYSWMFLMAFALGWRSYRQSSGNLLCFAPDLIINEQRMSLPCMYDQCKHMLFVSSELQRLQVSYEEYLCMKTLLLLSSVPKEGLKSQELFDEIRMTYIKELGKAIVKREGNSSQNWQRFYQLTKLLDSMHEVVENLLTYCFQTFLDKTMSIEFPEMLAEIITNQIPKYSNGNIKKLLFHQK

Glucocorticoid receptor [3] = target: T1, Glucocorticoid receptor; assay: Inhibition of human glucocorticoid receptor
[4] = Inhibitory activity against rat lymphocytes; parameters: concentration or dose not given beside the values
Androgen receptor = target: T2, Androgen receptor (Homo sapiens, UniProt P10275)
T2 sequence (P10275 whole entry): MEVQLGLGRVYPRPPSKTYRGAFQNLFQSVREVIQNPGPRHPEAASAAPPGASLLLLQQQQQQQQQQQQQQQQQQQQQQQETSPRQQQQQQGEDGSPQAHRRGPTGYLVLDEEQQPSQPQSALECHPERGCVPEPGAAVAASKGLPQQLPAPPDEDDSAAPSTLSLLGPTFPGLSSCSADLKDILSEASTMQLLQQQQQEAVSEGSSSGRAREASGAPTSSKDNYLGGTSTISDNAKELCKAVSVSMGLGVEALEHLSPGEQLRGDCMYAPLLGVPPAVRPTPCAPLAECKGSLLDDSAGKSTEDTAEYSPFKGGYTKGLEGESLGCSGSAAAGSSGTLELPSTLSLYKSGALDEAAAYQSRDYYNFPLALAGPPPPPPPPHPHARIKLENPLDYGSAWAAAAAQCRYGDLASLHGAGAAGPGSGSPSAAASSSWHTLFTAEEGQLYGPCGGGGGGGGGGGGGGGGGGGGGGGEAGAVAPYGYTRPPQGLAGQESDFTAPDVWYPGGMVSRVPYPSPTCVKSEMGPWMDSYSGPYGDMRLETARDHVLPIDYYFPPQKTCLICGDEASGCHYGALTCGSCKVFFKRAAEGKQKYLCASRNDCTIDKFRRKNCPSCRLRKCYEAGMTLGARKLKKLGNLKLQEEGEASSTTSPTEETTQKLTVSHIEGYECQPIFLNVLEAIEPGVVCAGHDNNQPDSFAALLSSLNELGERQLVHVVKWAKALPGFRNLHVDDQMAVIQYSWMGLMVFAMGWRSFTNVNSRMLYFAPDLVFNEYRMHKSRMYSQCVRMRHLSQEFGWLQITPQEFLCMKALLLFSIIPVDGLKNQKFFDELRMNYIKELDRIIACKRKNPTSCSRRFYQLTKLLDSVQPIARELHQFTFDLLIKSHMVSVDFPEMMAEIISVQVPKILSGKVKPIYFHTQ
Description: Inhibition of human androgen receptor

Progesterone receptor = target: T3, Progesterone receptor (Homo sapiens, UniProt P06401); assay: Inhibition of human progesterone receptor
T3 sequence (P06401 whole entry): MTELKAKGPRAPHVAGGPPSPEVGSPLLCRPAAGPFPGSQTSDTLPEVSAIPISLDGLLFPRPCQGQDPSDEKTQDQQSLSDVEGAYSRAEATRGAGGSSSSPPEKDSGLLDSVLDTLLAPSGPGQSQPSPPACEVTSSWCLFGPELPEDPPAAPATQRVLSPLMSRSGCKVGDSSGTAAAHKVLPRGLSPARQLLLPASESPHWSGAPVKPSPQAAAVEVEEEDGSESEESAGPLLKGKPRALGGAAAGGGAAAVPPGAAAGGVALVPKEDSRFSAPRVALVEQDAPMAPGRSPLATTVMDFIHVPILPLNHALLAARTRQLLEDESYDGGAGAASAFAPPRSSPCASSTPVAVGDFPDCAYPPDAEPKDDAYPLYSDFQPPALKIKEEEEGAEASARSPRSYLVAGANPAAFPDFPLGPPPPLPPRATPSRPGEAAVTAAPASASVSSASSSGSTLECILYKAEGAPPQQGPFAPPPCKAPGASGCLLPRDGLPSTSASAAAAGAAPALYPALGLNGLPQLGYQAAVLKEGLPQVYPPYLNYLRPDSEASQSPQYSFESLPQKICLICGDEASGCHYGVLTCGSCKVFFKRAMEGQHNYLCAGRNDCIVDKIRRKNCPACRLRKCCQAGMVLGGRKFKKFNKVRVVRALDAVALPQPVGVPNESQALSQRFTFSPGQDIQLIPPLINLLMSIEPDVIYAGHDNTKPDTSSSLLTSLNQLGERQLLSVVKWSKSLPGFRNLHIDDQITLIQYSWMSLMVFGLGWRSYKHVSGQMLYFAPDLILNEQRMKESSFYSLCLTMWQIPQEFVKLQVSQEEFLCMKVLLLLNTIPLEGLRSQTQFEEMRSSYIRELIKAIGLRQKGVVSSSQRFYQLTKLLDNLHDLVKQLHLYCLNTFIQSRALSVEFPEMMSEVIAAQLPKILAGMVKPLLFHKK

[5] = target: Glucocorticoid receptor (Rattus norvegicus) (UniProt P06536); assay: Inhibition of glucocorticoid receptor mediated tyrosine amino transferase activity
[6] = target: T4, Mineralocorticoid receptor (Homo sapiens, UniProt P08235)
T4 sequence (P08235 whole entry): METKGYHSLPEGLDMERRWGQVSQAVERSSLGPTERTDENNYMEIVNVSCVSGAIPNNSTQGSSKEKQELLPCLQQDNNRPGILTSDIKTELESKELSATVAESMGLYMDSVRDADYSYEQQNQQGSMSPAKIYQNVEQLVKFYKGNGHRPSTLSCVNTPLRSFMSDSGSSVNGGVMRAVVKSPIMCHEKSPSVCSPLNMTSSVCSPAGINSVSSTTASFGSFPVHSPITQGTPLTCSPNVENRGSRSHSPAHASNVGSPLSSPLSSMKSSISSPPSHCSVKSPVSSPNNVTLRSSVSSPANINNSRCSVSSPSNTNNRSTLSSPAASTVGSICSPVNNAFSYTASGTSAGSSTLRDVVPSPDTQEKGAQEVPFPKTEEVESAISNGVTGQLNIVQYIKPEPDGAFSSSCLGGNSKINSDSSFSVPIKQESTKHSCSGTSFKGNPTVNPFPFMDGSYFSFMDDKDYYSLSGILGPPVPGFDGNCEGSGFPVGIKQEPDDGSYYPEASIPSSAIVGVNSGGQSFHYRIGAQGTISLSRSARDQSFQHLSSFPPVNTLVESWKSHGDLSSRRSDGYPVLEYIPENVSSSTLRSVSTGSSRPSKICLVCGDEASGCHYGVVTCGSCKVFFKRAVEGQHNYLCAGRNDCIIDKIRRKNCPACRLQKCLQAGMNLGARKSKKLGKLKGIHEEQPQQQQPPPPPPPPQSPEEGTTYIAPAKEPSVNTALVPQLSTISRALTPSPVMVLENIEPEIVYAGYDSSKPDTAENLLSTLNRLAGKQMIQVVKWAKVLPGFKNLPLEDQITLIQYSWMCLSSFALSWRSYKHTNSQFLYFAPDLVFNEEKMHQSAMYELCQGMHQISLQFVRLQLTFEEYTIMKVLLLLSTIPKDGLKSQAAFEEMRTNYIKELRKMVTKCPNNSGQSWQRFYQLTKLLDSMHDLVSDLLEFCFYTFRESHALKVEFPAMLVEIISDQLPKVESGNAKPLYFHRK
Description: Inhibition of human Mineralocorticoid receptor

Ki (Glucocorticoid receptor [1]) | inhibition [2] | Ki (Glucocorticoid receptor [3]) | Ki (Androgen receptor) | Ki (Progesterone receptor) | Ki [5] | Ki [6] | Compound | Inhibition [4]
– | 49% | – | – | – | – | – | C#C[C@]1(O)CC[C@H]2[C@@H]3CCC4=CC(=O)CCC4=C3[C@@H](c3ccc(N(C)CCOC4CC[C@@]5(C)[C@@H](C4)C[C@@H](O)[C@@H]4[C@@H]5C[C@H](O)[C@]5(C)[C@@H]([C@H](C)CCC(=O)O)CC[C@@H]45)cc3)C[C@@]21C (stereo in doubt; form 1) | –
– | 72% | – | – | – | – | – | C#C[C@]1(O)CC[C@H]2[C@@H]3CCC4=CC(=O)CCC4=C3[C@@H](c3ccc(N(C)CCOC4CC[C@@]5(C)[C@@H](C4)C[C@@H](O)[C@@H]4[C@@H]5C[C@H](O)[C@]5(C)[C@@H]([C@H](C)CCC(=O)O)CC[C@@H]45)cc3)C[C@@]21C (stereo in doubt; form 2) | –
0.76 nM | – | 0.18 nM | – | – | – | – | C#C[C@]1(O)CC[C@H]2[C@@H]3CCC4=CC(=O)CCC4=C3[C@@H](c3ccc(N(C)CCOC4CC[C@@]5(C)[C@@H](C4)C[C@@H](O)[C@@H]4[C@@H]5CC[C@]5(C)[C@@H]([C@H](C)CCC(=O)O)CC[C@@H]45)cc3)C[C@@]21C (stereo partly drawn) | –
0.38 nM | 69% | 0.16 nM | – | – | – | – | C#C[C@]1(O)CC[C@H]2[C@@H]3CCC4=CC(=O)CCC4=C3[C@@H](c3ccc(N(C)CCOC4CC[C@@]5(C)[C@H](CC[C@@H]6[C@@H]5C[C@H](O)[C@]5(C)[C@@H]([C@H](C)CCC(=O)O)CC[C@@H]65)C4)cc3)C[C@@]21C (stereo partly drawn) | 22%
12 nM | 66% | 0.21 nM | 4.8 nM | 1.7 nM | 90 nM | 170 nM | C#C[C@]1(O)CC[C@H]2[C@@H]3CCC4=CC(=O)CCC4=C3[C@@H](c3ccc(N(C)CCOCCO[C@@H]4CC[C@@]5(C)[C@@H](C4)C[C@@H](O)[C@@H]4[C@@H]5C[C@H](O)[C@]5(C)[C@@H]([C@H](C)CCC(=O)O)CC[C@@H]45)cc3)C[C@@]21C | -2%

Further lines, the compound ahead of its results:

Compound | Ki (Glucocorticoid receptor [1]) | inhibition [2] | Ki (Glucocorticoid receptor [3]) | Ki (Androgen receptor) | Ki (Progesterone receptor) | Ki [5] | Ki [6] | Inhibition [4]
C#C[C@]1(O)CC[C@H]2[C@@H]3CCC4=CC(=O)CCC4=C3[C@@H](c3ccc(N(C)CCC[C@@]4(O)CC[C@@]5(C)[C@H](C[C@@H](O)[C@@H]6[C@@H]5C[C@H](O)[C@]5(C)[C@@H]([C@H](C)CCC(=O)O)CC[C@@H]65)C4)cc3)C[C@@]21C | 4.3 nM | 6% | 0.11 nM | – | – | – | – | 0%
C#C[C@]1(O)CC[C@H]2[C@@H]3CCC4=CC(=O)CCC4=C3[C@@H](c3ccc(N(C)CCNC(=O)O[C@@H]4C[C@@H]5CC(O)CC[C@]5(C)[C@H]5C[C@H](O)[C@]6(C)[C@@H]([C@H](C)CCC(=O)O)CC[C@H]6[C@H]45)cc3)C[C@@]21C (stereo partly drawn) | 37 nM | – | 1.2 nM | 18 nM | 4.6 nM | 730 nM | – | –
CC#C[C@]1(O)CC[C@H]2[C@@H]3CCC4=CC(=O)CC[C@]4(Cc4ccc(CCCO[C@H]5CC[C@@]6(C)[C@@H](C5)C[C@@H](O)[C@@H]5[C@@H]6C[C@H](O)[C@]6(C)[C@@H]([C@H](C)CCC(=O)O)CC[C@@H]56)cc4)C3=CC[C@@]21C | – | 5% | – | – | – | – | – | -16%
CC#C[C@]1(O)CC[C@H]2[C@@H]3CCC4=CC(=O)CCC4=C3[C@@H](c3ccc(N(C)CCO[C@H]4CC[C@@]5(C)[C@@H](C4)C[C@@H](O)[C@@H]4[C@@H]5C[C@H](O)[C@]5(C)[C@@H]([C@H](C)CCC(=O)NCCS(=O)(=O)O)CC[C@@H]45)cc3)C[C@@]21C | – | – | – | – | – | – | – | -6%
C#C[C@]1(O)CC[C@H]2[C@@H]3CCC4=CC(=O)CCC4=C3[C@@H](c3ccc(N(C)CCOC4CC[C@@]5(C)[C@H](CC[C@@H]6[C@@H]5CC[C@]5(C)[C@@H]([C@H](C)CCC(=O)O)CC[C@@H]65)C4)cc3)C[C@@]21C (stereo partly drawn) | 2.7 nM | – | 0.22 nM | – | – | – | – | –
C#C[C@]1(O)CC[C@H]2[C@@H]3CCC4=CC(=O)CCC4=C3[C@@H](c3ccc(N(C)C(=O)CNC(=O)O[C@H]4C[C@H]5[C@@H]([C@H](O)C[C@@H]6C[C@H](O)CC[C@@]65C)[C@@H]5CC[C@H]([C@H](C)CCC(=O)O)[C@@]45C)cc3)C[C@@]21C | 100 nM | – | 6.5 nM | – | – | 500 nM | – | –
